Experimental data from ChEMBL document CHEMBL1154040, “Synthesis and evaluation of novel F-18 labeled fluoroarylvaline derivatives: potential PET imaging agents for tumor detection” (Bioorg Med Chem Lett, 2009).

Columns and labels:
[1] = Ratio of drug level in S180 tumor to blood in KM mouse at 240 to 370 kBq, iv after 120 mins; format: ADME, organism-based; settings: tumour, 2 h
[2] = test system: Brain; assay: Biodistribution in S180 tumor-bearing KM mouse brain assessed per gram of tissue at 240 to 370 kBq, iv after 60 mins; format: ADME, organism-based; settings: in vivo, 1 h
[3] = test system: Heart; assay: Biodistribution in S180 tumor-bearing KM mouse heart assessed per gram of tissue weight at 240 to 370 kBq, iv after 60 mins; format: ADME, organism-based; settings: in vivo, 1 h
[4] = test system: Lung; assay: Biodistribution in S180 tumor-bearing KM mouse lung assessed per gram of tissue at 240 to 370 kBq, iv after 120 mins; format: ADME, organism-based; settings: in vivo, 2 h
[5] = test system: Liver; assay: Biodistribution in S180 tumor-bearing KM mouse liver assessed per gram of tissue weight at 240 to 370 kBq, iv after 5 mins; format: ADME, organism-based; settings: in vivo
[6] = test system: Lung; assay: Biodistribution in S180 tumor-bearing KM mouse lung assessed per gram of tissue at 240 to 370 kBq, iv after 15 mins; format: ADME, organism-based; settings: in vivo, 0.25 h
[7] = test system: Blood; assay: Biodistribution in S180 tumor-bearing KM mouse blood assessed per gram of tissue weight at 240 to 370 kBq, iv after 60 mins; format: ADME, organism-based; settings: in vivo, 1 h
[8] = test system: Muscle tissue; assay: Biodistribution in S180 tumor-bearing KM mouse muscle assessed per gram of tissue at 240 to 370 kBq, iv after 5 mins; format: ADME, organism-based; settings: in vivo
[9] = Ratio of drug level in S180 tumor to brain KM mouse at 240 to 370 kBq, iv after 5 mins; format: ADME, organism-based; settings: in vivo
[10] = test system: Brain; assay: Biodistribution in S180 tumor-bearing KM mouse brain assessed per gram of tissue at 240 to 370 kBq, iv after 30 mins; format: ADME, organism-based; settings: in vivo, 0.5 h
[11] = test system: Blood; assay: Biodistribution in S180 tumor-bearing KM mouse blood assessed per gram of tissue weight at 240 to 370 kBq, iv after 30 mins; format: ADME, organism-based; settings: in vivo, 0.5 h
[12] = test system: Muscle tissue; assay: Biodistribution in S180 tumor-bearing KM mouse muscle assessed per gram of tissue at 240 to 370 kBq, iv after 120 mins; format: ADME, organism-based; settings: in vivo, 2 h
[13] = test system: Heart; assay: Biodistribution in S180 tumor-bearing KM mouse heart assessed per gram of tissue weight at 240 to 370 kBq, iv after 15 mins; format: ADME, organism-based; settings: in vivo, 0.25 h
[14] = test system: Lung; assay: Biodistribution in S180 tumor-bearing KM mouse lung assessed per gram of tissue at 240 to 370 kBq, iv after 60 mins; format: ADME, organism-based; settings: in vivo, 1 h
[15] = Biodistribution in S180 tumor present in KM mouse assessed per gram of tissue at 240 to 370 kBq, iv after 15 mins; format: ADME, organism-based, Neoplasm; settings: in vivo, 0.25 h
[16] = test system: Lung; assay: Biodistribution in S180 tumor-bearing KM mouse lung assessed per gram of tissue at 240 to 370 kBq, iv after 5 mins; format: ADME, organism-based; settings: in vivo
[17] = test system: Kidney; assay: Biodistribution in S180 tumor-bearing KM mouse kidney assessed per gram of tissue at 240 to 370 kBq, iv after 60 mins; format: ADME, organism-based; settings: in vivo, 1 h
[18] = test system: Muscle tissue; assay: Biodistribution in S180 tumor-bearing KM mouse muscle assessed per gram of tissue at 240 to 370 kBq, iv after 15 mins; format: ADME, organism-based; settings: in vivo, 0.25 h
[19] = test system: Blood; assay: Biodistribution in S180 tumor-bearing KM mouse blood assessed per gram of tissue weight at 240 to 370 kBq, iv after 120 mins; format: ADME, organism-based; settings: in vivo, 2 h
[20] = Ratio of drug level in S180 tumor to muscleKM mouse at 240 to 370 kBq, iv after 120 mins; format: ADME, organism-based, KM; settings: in vivo, 2 h
[21] = Ratio of drug level in S180 tumor to brain KM mouse at 240 to 370 kBq, iv after 60 mins; format: ADME, organism-based; settings: in vivo, 1 h
[22] = test system: Kidney; assay: Biodistribution in S180 tumor-bearing KM mouse kidney assessed per gram of tissue at 240 to 370 kBq, iv after 15 mins; format: ADME, organism-based; settings: in vivo, 0.25 h
[23] = test system: Heart; assay: Biodistribution in S180 tumor-bearing KM mouse heart assessed per gram of tissue weight at 240 to 370 kBq, iv after 30 mins; format: ADME, organism-based; settings: in vivo, 0.5 h
[24] = test system: Liver; assay: Biodistribution in S180 tumor-bearing KM mouse liver assessed per gram of tissue at 240 to 370 kBq, iv after 30 mins; format: ADME, organism-based; settings: in vivo, 0.5 h
[25] = test system: Brain; assay: Biodistribution in S180 tumor-bearing KM mouse brain assessed per gram of tissue at 240 to 370 kBq, iv after 120 mins; format: ADME, organism-based; settings: in vivo, 2 h
[26] = test system: Liver; assay: Biodistribution in S180 tumor-bearing KM mouse liver assessed per gram of tissue at 240 to 370 kBq, iv after 120 mins; format: ADME, organism-based; settings: in vivo, 2 h
[27] = Ratio of drug level in S180 tumor to muscleKM mouse at 240 to 370 kBq, iv after 60 mins; format: ADME, organism-based, KM; settings: in vivo, 1 h
[28] = Ratio of drug level in S180 tumor to muscleKM mouse at 240 to 370 kBq, iv after 5 mins; format: ADME, organism-based, KM; settings: in vivo
[29] = Biodistribution in S180 tumor present in KM mouse assessed per gram of tissue at 240 to 370 kBq, iv after 120 mins; format: ADME, organism-based, Neoplasm; settings: in vivo, 2 h
[30] = test system: Muscle tissue; assay: Biodistribution in S180 tumor-bearing KM mouse muscle assessed per gram of tissue at 240 to 370 kBq, iv after 60 mins; format: ADME, organism-based; settings: in vivo, 1 h
[31] = Ratio of drug level in S180 tumor to muscleKM mouse at 240 to 370 kBq, iv after 30 mins; format: ADME, organism-based, KM; settings: in vivo, 0.5 h
[32] = test system: Lung; assay: Biodistribution in S180 tumor-bearing KM mouse lung assessed per gram of tissue at 240 to 370 kBq, iv after 30 mins; format: ADME, organism-based; settings: in vivo, 0.5 h
[33] = test system: Spleen; assay: Biodistribution in S180 tumor-bearing KM mouse spleen assessed per gram of tissue at 240 to 370 kBq, iv after 120 mins; format: ADME, organism-based; settings: in vivo, 2 h
[34] = Ratio of drug level in S180 tumor to blood in KM mouse at 240 to 370 kBq, iv after 5mins; format: ADME, organism-based; settings: tumour
[35] = test system: Spleen; assay: Biodistribution in S180 tumor-bearing KM mouse spleen assessed per gram of tissue at 240 to 370 kBq, iv after 30 mins; format: ADME, organism-based; settings: in vivo, 0.5 h
[36] = Biodistribution in S180 tumor present in KM mouse assessed per gram of tissue at 240 to 370 kBq, iv after 5 mins; format: ADME, organism-based, Neoplasm; settings: in vivo
[37] = test system: Kidney; assay: Biodistribution in S180 tumor-bearing KM mouse kidney assessed per gram of tissue at 240 to 370 kBq, iv after 30 mins; format: ADME, organism-based; settings: in vivo, 0.5 h
[38] = test system: Spleen; assay: Biodistribution in S180 tumor-bearing KM mouse spleen assessed per gram of tissue at 240 to 370 kBq, iv after 5 mins; format: ADME, organism-based; settings: in vivo
[39] = test system: Brain; assay: Biodistribution in S180 tumor-bearing KM mouse brain assessed per gram of tissue at 240 to 370 kBq, iv after 15 mins; format: ADME, organism-based; settings: in vivo, 0.25 h
[40] = test system: Heart; assay: Biodistribution in S180 tumor-bearing KM mouse heart assessed per gram of tissue weight at 240 to 370 kBq, iv after 5 mins; format: ADME, organism-based; settings: in vivo
[41] = Ratio of drug level in S180 tumor to blood in KM mouse at 240 to 370 kBq, iv after 15mins; format: ADME, organism-based; settings: tumour, 0.25 h
[42] = test system: Brain; assay: Biodistribution in S180 tumor-bearing KM mouse brain assessed per gram of tissue at 240 to 370 kBq, iv after 5 mins; format: ADME, organism-based; settings: in vivo
[43] = Ratio of drug level in S180 tumor to brain KM mouse at 240 to 370 kBq, iv after 15 mins; format: ADME, organism-based; settings: in vivo, 0.25 h

`CC(C)[C@H](NC(=O)c1ccc([N+](=O)[O-])cc1[18F])C(=O)O` gave a tumor/blood ratio [1] of 1.3, a Drug uptake [2] of 0.03 %ID and a Drug uptake [3] of 0.11 %ID. The Drug uptake [4] was 0.57 %ID, the Drug uptake [5] was 6.54 %ID and the Drug uptake [6] was 2.01 %ID. The Drug uptake [7] was 0.15 %ID, the Drug uptake [8] was 0.99 %ID and the tumor/brain ratio [9] was 9.38. It also gave a Drug uptake [10] of 0.04 %ID, a Drug uptake [11] of 0.24 %ID and a Drug uptake [12] of 0.12 %ID. It also gave a Drug uptake [13] of 0.72 %ID, a Drug uptake [14] of 1.14 %ID and a Drug uptake [15] of 0.91 %ID. For the same compound, the Drug uptake [16] was 5.04 %ID, the Drug uptake [17] was 0.45 %ID and the Drug uptake [18] was 0.47 %ID. It also gave a Drug uptake [19] of 0.06 %ID, a tumor/muscle ratio [20] of 0.66 and a tumor/brain ratio [21] of 9.99. For the same compound, the Drug uptake [22] was 5.19 %ID, the Drug uptake [23] was 0.29 %ID and the Drug uptake [24] was 1.59 %ID. The Drug uptake [25] was 0.01 %ID, the Drug uptake [26] was 0.5 %ID and the tumor/muscle ratio [27] was 1.74. It also gave a tumor/muscle ratio [28] of 1.38, a Drug uptake [29] of 0.08 %ID and a Drug uptake [30] of 0.15 %ID. It also gave a tumor/muscle ratio [31] of 2.62, a Drug uptake [32] of 1.38 %ID and a Drug uptake [33] of 0.16 %ID. It also gave a tumor/blood ratio [34] of 0.56, a Drug uptake [35] of 0.31 %ID and a Drug uptake [36] of 1.37 %ID. For the same compound, the Drug uptake [37] was 1.36 %ID, the Drug uptake [38] was 1.04 %ID and the Drug uptake [39] was 0.09 %ID. The Drug uptake [40] was 1.07 %ID, the tumor/blood ratio [41] was 0.72 and the Drug uptake [42] was 0.15 %ID. For the same compound, the tumor/brain ratio [43] was 10.4.
